Target: T1, Proteinase-activated receptor 4 (Homo sapiens, UniProt Q96RI0)
T1 sequence (Q96RI0 whole entry): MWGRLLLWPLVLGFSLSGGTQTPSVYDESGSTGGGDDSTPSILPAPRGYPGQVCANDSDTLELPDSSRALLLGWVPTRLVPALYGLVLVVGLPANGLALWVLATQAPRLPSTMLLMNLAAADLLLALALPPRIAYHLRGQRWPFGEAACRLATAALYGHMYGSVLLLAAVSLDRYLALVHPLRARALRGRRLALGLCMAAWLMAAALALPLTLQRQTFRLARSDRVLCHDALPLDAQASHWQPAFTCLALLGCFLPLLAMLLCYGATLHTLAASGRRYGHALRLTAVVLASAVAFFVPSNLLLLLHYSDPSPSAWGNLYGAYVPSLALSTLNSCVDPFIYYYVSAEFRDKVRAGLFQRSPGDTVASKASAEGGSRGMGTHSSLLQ
Assay: FLIPR Assay in PAR4-Expressing HEK293 Cells: FLIPR-based calcium mobilization assay in HEK293 cells was used to measure PAR4 antagonism agonism, and selectivity against PAR1. The activity of the PAR4 antagonists of the present invention were tested in PAR4 expressing cells by monitoring H-Ala-Phe(4-F)-[…]NH2-induced intracellular calcium mobilization. Counter screens for agonist activity and PAR1 antagonist activity were also performed. Briefly, PAR/PAR4-expressing HEK293 cells were grown in DMEM (Life Technology, Grand Island, N.Y.) containing 10% heat-inactivated FBS, 1% Penicillin-Streptomycin, 10 μg/mL blasticidin, and 100 μg/mL Zeocin at 37° C. with 5% CO2. Cells were plated overnight prior to the experiment in a black 384-well Purecoat Amine clear bottom plate (Becton Dickinson Biosciences, San Jose, Calif.) at 10,000 cells/well in 30 μL growth medium and incubated in a humidified chamber at 37° C. with 5% CO2 overnight. Prior to compound addition, the cell medium was replaced with 40 μL of 1× calcium and magnesium-containing Hank's Balanced Saline Solution (HBSS) (with 20 mM HEPES) and 1:1000 diluted fluorescent calcium indicator (Codex Biosolutions, Gaithersburg, Md.). […]

Structure (SMILES)	IC50 [nM]
COc1ccc(NC(=O)O[C@H]2CCNC[C@H]2Oc2cc3sc(-c4cc(C)cc5nc(OC)cnc45)nc3cc2F)cn1 (racemic)	980
COc1cnc2c(-c3nc4cc(F)c(O[C@@H]5CC(F)(F)C[C@@H]5OC(=O)Nc5cnc(OCCO)nc5)cc4s3)cc(C)cc2c1 (relative stereo)	20
